{"source": "BigSolDB 2.1"}
{"molecule": "O=C(O)/C=C/C(=O)O.OCCOCCN1CCN(C2=Nc3ccccc3Sc3ccccc32)CC1.OCCOCCN1CCN(C2=Nc3ccccc3Sc3ccccc32)CC1", "values": [{"measurement": "solubility (mole fraction)", "setting": "in 2-butanone, 283.15 K", "value": 0.000134}, {"measurement": "solubility (mole fraction)", "setting": "in 2-butanone, 288.15 K", "value": 0.000164}, {"measurement": "solubility (mole fraction)", "setting": "in 2-butanone, 293.15 K", "value": 0.000204}, {"measurement": "solubility (mole fraction)", "setting": "in 2-butanone, 298.15 K", "value": 0.000251}, {"measurement": "solubility (mole fraction)", "setting": "in 2-butanone, 303.15 K", "value": 0.000309}, {"measurement": "solubility (mole fraction)", "setting": "in 2-butanone, 308.15 K", "value": 0.000382}, {"measurement": "solubility (mole fraction)", "setting": "in 2-butanone, 313.15 K", "value": 0.000462}, {"measurement": "solubility (mole fraction)", "setting": "in 2-butanone, 318.15 K", "value": 0.000581}, {"measurement": "solubility (mole fraction)", "setting": "in 2-butanone, 323.15 K", "value": 0.000721}, {"measurement": "solubility (mole fraction)", "setting": "in MIBK, 283.15 K", "value": 0.000128}, {"measurement": "solubility (mole fraction)", "setting": "in MIBK, 288.15 K", "value": 0.000153}, {"measurement": "solubility (mole fraction)", "setting": "in MIBK, 293.15 K", "value": 0.000181}, {"measurement": "solubility (mole fraction)", "setting": "in MIBK, 298.15 K", "value": 0.000224}, {"measurement": "solubility (mole fraction)", "setting": "in MIBK, 303.15 K", "value": 0.000273}, {"measurement": "solubility (mole fraction)", "setting": "in MIBK, 308.15 K", "value": 0.000328}, {"measurement": "solubility (mole fraction)", "setting": "in MIBK, 313.15 K", "value": 0.000398}, {"measurement": "solubility (mole fraction)", "setting": "in MIBK, 318.15 K", "value": 0.000475}, {"measurement": "solubility (mole fraction)", "setting": "in MIBK, 323.15 K", "value": 0.000571}, {"measurement": "solubility (mole fraction)", "setting": "in MTBE, 283.15 K", "value": "4.36e-05"}, {"measurement": "solubility (mole fraction)", "setting": "in MTBE, 288.15 K", "value": "5.55e-05"}, {"measurement": "solubility (mole fraction)", "setting": "in MTBE, 293.15 K", "value": "6.74e-05"}, {"measurement": "solubility (mole fraction)", "setting": "in MTBE, 298.15 K", "value": "8.27e-05"}, {"measurement": "solubility (mole fraction)", "setting": "in MTBE, 303.15 K", "value": 0.000107}, {"measurement": "solubility (mole fraction)", "setting": "in MTBE, 308.15 K", "value": 0.00013}, {"measurement": "solubility (mole fraction)", "setting": "in MTBE, 313.15 K", "value": 0.000161}, {"measurement": "solubility (mole fraction)", "setting": "in MTBE, 318.15 K", "value": 0.000192}, {"measurement": "solubility (mole fraction)", "setting": "in MTBE, 323.15 K", "value": 0.000241}, {"measurement": "solubility (mole fraction)", "setting": "in THF, 283.15 K", "value": 0.000705}, {"measurement": "solubility (mole fraction)", "setting": "in THF, 288.15 K", "value": 0.000873}, {"measurement": "solubility (mole fraction)", "setting": "in THF, 293.15 K", "value": 0.00108}, {"measurement": "solubility (mole fraction)", "setting": "in THF, 298.15 K", "value": 0.00133}, {"measurement": "solubility (mole fraction)", "setting": "in THF, 303.15 K", "value": 0.00167}, {"measurement": "solubility (mole fraction)", "setting": "in THF, 308.15 K", "value": 0.00208}, {"measurement": "solubility (mole fraction)", "setting": "in THF, 313.15 K", "value": 0.00261}, {"measurement": "solubility (mole fraction)", "setting": "in THF, 318.15 K", "value": 0.00323}, {"measurement": "solubility (mole fraction)", "setting": "in THF, 323.15 K", "value": 0.00409}, {"measurement": "solubility (mole fraction)", "setting": "in dichloromethane, 283.15 K", "value": 0.000174}, {"measurement": "solubility (mole fraction)", "setting": "in dichloromethane, 288.15 K", "value": 0.000213}, {"measurement": "solubility (mole fraction)", "setting": "in dichloromethane, 293.15 K", "value": 0.000279}, {"measurement": "solubility (mole fraction)", "setting": "in dichloromethane, 298.15 K", "value": 0.000365}, {"measurement": "solubility (mole fraction)", "setting": "in dichloromethane, 303.15 K", "value": 0.00046}, {"measurement": "solubility (mole fraction)", "setting": "in dichloromethane, 308.15 K", "value": 0.000597}, {"measurement": "solubility (mole fraction)", "setting": "in dichloromethane, 313.15 K", "value": 0.000775}, {"measurement": "solubility (mole fraction)", "setting": "in ethyl formate, 283.15 K", "value": "8.6e-05"}, {"measurement": "solubility (mole fraction)", "setting": "in ethyl formate, 288.15 K", "value": 0.000105}, {"measurement": "solubility (mole fraction)", "setting": "in ethyl formate, 293.15 K", "value": 0.000125}, {"measurement": "solubility (mole fraction)", "setting": "in ethyl formate, 298.15 K", "value": 0.000158}, {"measurement": "solubility (mole fraction)", "setting": "in ethyl formate, 303.15 K", "value": 0.000197}, {"measurement": "solubility (mole fraction)", "setting": "in ethyl formate, 308.15 K", "value": 0.00024}, {"measurement": "solubility (mole fraction)", "setting": "in ethyl formate, 313.15 K", "value": 0.000291}, {"measurement": "solubility (mole fraction)", "setting": "in ethyl formate, 318.15 K", "value": 0.000362}, {"measurement": "solubility (mole fraction)", "setting": "in ethyl formate, 323.15 K", "value": 0.000445}, {"measurement": "solubility (mole fraction)", "setting": "in isopropyl acetate, 283.15 K", "value": "3.95e-05"}, {"measurement": "solubility (mole fraction)", "setting": "in isopropyl acetate, 288.15 K", "value": "4.7e-05"}, {"measurement": "solubility (mole fraction)", "setting": "in isopropyl acetate, 293.15 K", "value": "5.77e-05"}, {"measurement": "solubility (mole fraction)", "setting": "in isopropyl acetate, 298.15 K", "value": "6.96e-05"}, {"measurement": "solubility (mole fraction)", "setting": "in isopropyl acetate, 303.15 K", "value": "8.3e-05"}, {"measurement": "solubility (mole fraction)", "setting": "in isopropyl acetate, 308.15 K", "value": 0.000104}, {"measurement": "solubility (mole fraction)", "setting": "in isopropyl acetate, 313.15 K", "value": 0.000127}, {"measurement": "solubility (mole fraction)", "setting": "in isopropyl acetate, 318.15 K", "value": 0.000158}, {"measurement": "solubility (mole fraction)", "setting": "in isopropyl acetate, 323.15 K", "value": 0.000191}, {"measurement": "solubility (mole fraction)", "setting": "in n-heptane, 283.15 K", "value": "1.59e-05"}, {"measurement": "solubility (mole fraction)", "setting": "in n-heptane, 288.15 K", "value": "1.94e-05"}, {"measurement": "solubility (mole fraction)", "setting": "in n-heptane, 293.15 K", "value": "2.44e-05"}, {"measurement": "solubility (mole fraction)", "setting": "in n-heptane, 298.15 K", "value": "3.02e-05"}, {"measurement": "solubility (mole fraction)", "setting": "in n-heptane, 303.15 K", "value": "3.61e-05"}, {"measurement": "solubility (mole fraction)", "setting": "in n-heptane, 308.15 K", "value": "4.57e-05"}, {"measurement": "solubility (mole fraction)", "setting": "in n-heptane, 318.15 K", "value": "6.96e-05"}, {"measurement": "solubility (mole fraction)", "setting": "in n-hexane, 283.15 K", "value": "1.46e-05"}, {"measurement": "solubility (mole fraction)", "setting": "in n-hexane, 288.15 K", "value": "1.77e-05"}, {"measurement": "solubility (mole fraction)", "setting": "in n-hexane, 293.15 K", "value": "2.17e-05"}, {"measurement": "solubility (mole fraction)", "setting": "in n-hexane, 298.15 K", "value": "2.75e-05"}, {"measurement": "solubility (mole fraction)", "setting": "in n-hexane, 303.15 K", "value": "3.3e-05"}, {"measurement": "solubility (mole fraction)", "setting": "in n-hexane, 308.15 K", "value": "4.17e-05"}, {"measurement": "solubility (mole fraction)", "setting": "in n-hexane, 313.15 K", "value": "5.15e-05"}, {"measurement": "solubility (mole fraction)", "setting": "in n-hexane, 318.15 K", "value": "6.53e-05"}, {"measurement": "solubility (mole fraction)", "setting": "in n-hexane, 323.15 K", "value": "8.16e-05"}, {"measurement": "solubility (mole fraction)", "setting": "in n-propanol, 283.15 K", "value": 0.000244}, {"measurement": "solubility (mole fraction)", "setting": "in n-propanol, 288.15 K", "value": 0.000317}, {"measurement": "solubility (mole fraction)", "setting": "in n-propanol, 293.15 K", "value": 0.000396}, {"measurement": "solubility (mole fraction)", "setting": "in n-propanol, 298.15 K", "value": 0.000497}, {"measurement": "solubility (mole fraction)", "setting": "in n-propanol, 303.15 K", "value": 0.000614}, {"measurement": "solubility (mole fraction)", "setting": "in n-propanol, 308.15 K", "value": 0.000797}, {"measurement": "solubility (mole fraction)", "setting": "in n-propanol, 313.15 K", "value": 0.00101}, {"measurement": "solubility (mole fraction)", "setting": "in n-propanol, 318.15 K", "value": 0.00126}, {"measurement": "solubility (mole fraction)", "setting": "in n-propanol, 323.15 K", "value": 0.0016}, {"measurement": "solubility (mole fraction)", "setting": "in toluene, 283.15 K", "value": "3.01e-05"}, {"measurement": "solubility (mole fraction)", "setting": "in toluene, 288.15 K", "value": "3.49e-05"}, {"measurement": "solubility (mole fraction)", "setting": "in toluene, 293.15 K", "value": "4.19e-05"}, {"measurement": "solubility (mole fraction)", "setting": "in toluene, 298.15 K", "value": "4.98e-05"}, {"measurement": "solubility (mole fraction)", "setting": "in toluene, 303.15 K", "value": "5.82e-05"}, {"measurement": "solubility (mole fraction)", "setting": "in toluene, 308.15 K", "value": "7.09e-05"}, {"measurement": "solubility (mole fraction)", "setting": "in toluene, 313.15 K", "value": "8.5e-05"}, {"measurement": "solubility (mole fraction)", "setting": "in toluene, 318.15 K", "value": 0.000102}, {"measurement": "solubility (mole fraction)", "setting": "in toluene, 323.15 K", "value": 0.000121}]}
